This passage reports EC50 results from BindingDB's records for doi:10.1016/j.bmc.2017.06.049 (Federal University of Alagoas, 2017).

This experiment can be described thus: Inhibition of Chikungunya virus nsP2 protease infected in African green monkey Vero cells assessed as inhibition of viral-induced cytopathic effect by titration assay. (In general: Cytopathic effects are the visible damage that an infection or toxin causes in cultured cells.)

Consider `CCOc1ccc(/C=N/NC(=O)C2CC2c2ccc(C(C)(C)C)cc2)cc1OCC` (configuration not stated), for which the EC50 amounted to 5 µM.
For `CCOc1ccc(/C=N/NC(=O)/C=C/Cc2ccc(C(C)(C)C)cc2)cc1OCC`, the EC50 stood at 3.2 µM.

A word on the EC50: it is the concentration at which the effect is half-maximal.
